In general, GI50 refers to the concentration that inhibits growth by half.

This assay relates to HT-29, SF-268, PC-3, MDA-MB-231. Description: Average GI50 over the four cell lines, method (a). In kind it is cell-based. Conditions: method (a); values > 30 not considered; read-out: Average (GI50 μM). As to the method:
Compounds were dissolved at 10 mM in DMSO. Dilution in vehicle to concentrations of 30, 10, 3, 1 and 0.3 μM were prepared immediately before assays. Depending on the cell line's growth characteristics, 4000-10000 cells were plated in two 96-wells pates (day 0) and incubated for 16 hours. The following day, propidium iodide was added to one of the two plates and fluorescence measured (Tz). Test compounds were added to the second plate, as well as vehicle control, and cells further incubated for 96 hours. Each compound was tested at each concentration and in triplicates. The equivalent cell number was determined after adding propidium iodide by measuring the signal by fluorescence (C for control).

Regarding `CC(C)=CCC/C(C)=C/CC/C(C)=C/CN1C(=O)c2cccc(O)c2Nc2c(O)cc(O)cc21` [Compound 1, 10-farnesyl-4,6,8-trihydroxy-5,10-dihydrodibenzo[b,e][1,4]diazepin-11-one], the concentration for 50% growth inhibition (GI50) turned out to be 4.23 µM.

These data come from patent publication US20060079512A1, “Dibenzodiazepinone analogues, processes for their production and their use as pharmaceuticals” (Ecopia BioSciences, Inc., priority 2003, published 2006).
